Data taken from US4014876A, “Isoxazole derivatives” (Shionogi & Co., Ltd., priority 1969, dated 1977).

Key:
Blood Free-Fatty-Acid = Blood Free-Fatty-Acid (B.F.F.A.) lowering activity in fasted rats (oral); type: in vivo, rat (male); conditions: 100 mg/kg p.o.; for B.F.F.A. Level, 1 hr after / B.F.F.A. Level, 3 hr after / B.F.F.A. Level, 5 hr after: fasted rats; for B.F.F.A. Level, Total: total of 1, 3 and 5 hr values
Procedure: Several groups of male rats weighing 200 to 250 g, each group consisting of 5 rats, were used in the test. Assay and control groups were fasted during 24 hours and then orally given 5 % gum arabic suspension with and without the test compound (100 mg/kg p.o.), respectively. All animals tested were decapitated 1 hour after, 3 hours after, or 5 hours after the treatment, and blood samples were drawn for B.F.F.A. value determination. A percentage factor, as B.F.F.A. Level, was determined according to the Itaya-Ui method [K. Itaya, et al.: J. Lipid Research, Vol. 6, 18 (1965)], calculated by the following equation: [formula] b) Result
B.F.F.A. Levels are shown in Table II, together with + and - marks and the total of the three values for each compound.

blood-sugar = assay: Hypoglycemic activity in alloxan-treated rats (Blood-Sugar-Level, oral); type: in vivo, rat (alloxan-treated adult male); conditions: for Percentage of Blood-Sugar-Level (B.S.L.), 1 hr after / Percentage of Blood-Sugar-Level (B.S.L.), 3 hr after / Percentage of Blood-Sugar-Level (B.S.L.), 5 hr after: alloxan rats, change vs control; for Percentage of Blood-Sugar-Level (B.S.L.), Total: total of 1, 3 and 5 hr percentages
Procedure: Assay and control groups of rats were used, each group consisting of 5 adult male rats weighing 200 to 250 g and showing about 250 to 350 mg/dl-blood as the initial blood-sugar value, after being treated once with 50 mg/kg of alloxan (i.v.) one week before the assay. The assay and control groups were orally administered a 5 % gum arabic suspension with and without the test compound, respectively. Measurement of the absolute blood-sugar value was carried out thrice (i.e. 1 hour after, 3 hours after, and 5 hours after administration) and the values were compared with those of the control group. Blood-sugar values were determined by an assay technique using the marketed enzymatic glucose reagent: Glucostat (Trade Mark of Worthington Biochemical Corporation, Freehold, N.J., U.S.A.).
In effect, the marks + and -correspond to increasing and decreasing
tendency of B.S.L., respectively, after eliminating the difference in
value between the assay and control groups.

in vivo = conditions: mouse, oral, mice, 24 hours observation
Text: For each dose 10 male mice were used, their body-weights ranging from 19 to 21 grams. […] The LD50 means the amount of the test compound being expected to kill just half the number of the animals treated.

SMILES | B.F.F.A. Level, 1 hr after (Blood Free-Fatty-Acid) [%] | B.F.F.A. Level, 3 hr after (Blood Free-Fatty-Acid) [%] | B.F.F.A. Level, 5 hr after (Blood Free-Fatty-Acid) | B.F.F.A. Level, Total (Blood Free-Fatty-Acid) [%] | Percentage of Blood-Sugar-Level (B.S.L.), 1 hr after (blood-sugar; 100 mg/kg dose) [%] | Percentage of Blood-Sugar-Level (B.S.L.), 3 hr after (blood-sugar; 100 mg/kg dose) [%] | Percentage of Blood-Sugar-Level (B.S.L.), 5 hr after (blood-sugar; 100 mg/kg dose) [%] | Percentage of Blood-Sugar-Level (B.S.L.), Total (blood-sugar; 100 mg/kg dose) [%] | Percentage of Blood-Sugar-Level (B.S.L.), 1 hr after (blood-sugar; 10 mg/kg dose) [%] | Percentage of Blood-Sugar-Level (B.S.L.), 3 hr after (blood-sugar; 10 mg/kg dose) | Percentage of Blood-Sugar-Level (B.S.L.), 5 hr after (blood-sugar; 10 mg/kg dose) | Percentage of Blood-Sugar-Level (B.S.L.), Total (blood-sugar; 10 mg/kg dose) [%] | LD50 at 24 h (in vivo) [mg/kg]
CCCCNC(=O)NS(=O)(=O)c1ccc(C)cc1 [Compound 6, Tolbutamide, reference compound] | -40 | -45 | 0% | -85 | -9 | -26 | -23 | -58 | – | – | – | – | –
CCc1cc(C(=O)NC(=O)NC(C)C)no1 [Compound 1, N'-i-propyl-N-(5-ethyl-3-isoxazolylcarbonyl)urea] | – | – | – | – | -54 | -63 | -43 | -160 | -8 | +2% | +2% | -4 | –
Cc1cc(C(=O)NC(N)=S)no1 [N-(5-methyl-3-isoxazolylcarbonyl)thiourea] | -60 | -36 | +13% | -83 | – | – | – | – | – | – | – | – | –
Cc1cc(C(=O)NC(=N)N)no1 [Compound 3, 1-(5-methyl-3-isoxazolylcarbonyl)guanidine] | -70 | -15 | -8% | -93 | -30 | -56 | -52 | -138 | -11 | -39% | -32% | -82 | 2000 to 3000
Cc1cc(C(=O)NC(=O)NC2CCCCC2)no1 [N'-cyclohexyl-N-(5-methyl-3-isoxazolylcarbonyl)urea] | -27 | -34 | -23% | -84 | – | – | – | – | – | – | – | – | –
CCCCNC(=O)NC(=O)c1cc(C)on1 [N'-n-butyl-N-(5-methyl-3-isoxazolylcarbonyl)urea] | -59 | -59 | -30% | -129 | – | – | – | – | – | – | – | – | –
Cc1cc(C(=O)N(C)C(=O)N(C)C)no1 [Compound 5, N,N',N'-trimethyl-N-(5-methyl-3-isoxazolylcarbonyl)urea] | – | – | – | – | -24 | -40 | -40 | -104 | -19 | -39% | -39% | -97 | –
Cc1cc(C(=O)NC(=O)NC(C)C)no1 [N'-i-propyl-N-(5-methyl-3-isoxazolylcarbonyl)urea] | -75 | -67 | -49% | -191 | – | – | – | – | – | – | – | – | 7000 to 8000
CNC(=O)N(C)C(=O)c1cc(C)on1 [Compound 4, N,N'-dimethyl-N-(5-methyl-3-isoxazolylcarbonyl)urea] | – | – | – | – | -22 | -51 | -59 | -132 | -15 | -36% | -20% | -71 | –
Cc1cc(C(=O)NC(=O)N(C)C)no1 [Compound 2, N',N'-dimethyl-N-(5-methyl-3-isoxazolylcarbonyl)urea] | – | – | – | – | -33 | -59 | -59 | -151 | -45 | -59% | -29% | – | –
Cc1cc(C(=O)NC(N)=O)no1 [N-(5-methyl-3-isoxazolylcarbonyl)urea] | – | – | – | – | – | – | – | – | – | – | – | – | > 10000
